{"source": "patent US8415369B2", "about": "“Spiroheterocyclic pyrrolidine dione derivatives useful as pesticides” (Syngenta Crop Protection LLC, priority 2007, dated 2013)", "key": {"[1]": {"test_system": "Thrips tabaci (onion thrips)", "test": "Example B18: comparison with state of the art, Thrips tabaci, feeding/residual contact activity, preventive", "format": "in vivo", "conditions": "for Death rate (%) after 6 days: sunflower leaf discs, mixed population, preventive"}, "[2]": {"test_system": "African bean aphid (Aphis craccivora)", "test": "Example B21: insecticide seed treatment of sugarbeet seeds, reduction of aphids", "format": "in vivo", "conditions": "infested after 14 days, counted 7 days after infestation", "method": "Insecticide Seed Treatment Sugarbeet seeds are treated with test compounds at various rates (mg a.i./seed). The seeds are sown into pots filled with soil. After placing the seeds on the soil surface they are further covered with soil. Before and during the bioassays, the plants are grown under optimal greenhouse conditions. After 14 days, the plants are infested with African bean aphid (Aphis craccivora) by placing one infested pea seedling containing approximately 150 aphids of a population of mixed developmental stages onto each plant. Seven days after infestation, the number of aphids is counted per plant. Each treatment group is replicated 10 times. Each replicate contains 1 plant. In this test, compounds listed in Tables A, B, C, D, E and F above show good activity."}, "[3]": {"test_system": "Myzus persicae (green peach aphid)", "test": "Example B16: comparison with state of the art, Myzus persicae, feeding/residual contact activity, preventive", "format": "in vivo", "conditions": "for Death rate (%) after 6 days: sunflower leaf discs, mixed population, preventive"}, "[4]": {"test_system": "Diabrotica balteata (corn root worm)", "test": "Example B17: comparison with state of the art, Diabrotica balteata, larvicide, growth regulation", "format": "in vivo", "conditions": "for Inhibition of growth (%) after 5 dsys: artificial diet MTP, L2 larvae", "method": "After drying, the MTP's are infested with larvae (L2)(6-10 per well). After an incubation period of 5 days, samples are checked for growth regulation."}, "[5]": {"test_system": "Myzus persicae (green peach aphid)", "test": "Example B19: comparison with state of the art, Myzus persicae, systemic/feeding activity, curative", "format": "in vivo", "conditions": "for Death rate (%) after 6 days (systemic action): pea seedling roots in test solution, curative"}, "[6]": {"test_system": "Tetranychus urticae (two-spotted spider mite)", "test": "Example B20: comparison with state of the art, Tetranychus urticae, feeding/residual contact activity, preventive", "format": "in vivo", "conditions": "for Death rate (%) after 8 days: bean leaf discs, mixed population, preventive", "from_the_text": "Activity Against Tetranychus urticae (Two-Spotted Spider Mite)\n(Mixed Population, Feeding/Residual Contact Activity, Preventive)\nBean leaf discs on agar in 24-well microtiter plates are sprayed with test solutions. […] 8 days later, discs are checked for egg mortality, larval mortality, and adult mortality."}}, "data": [{"molecule": "CON1CCC2(CC1)NC(=O)C(c1c(C)cc(C)cc1C)=C2O", "note": "[Compound C2]", "values": [{"measurement": "Death rate (%) after 6 days", "setting": "[1]; 12.5 ppm", "value": 90, "unit": "%"}, {"measurement": "Death rate (%) after 6 days", "setting": "[1]; 50 ppm", "value": 100, "unit": "%"}, {"measurement": "Death rate (%) after 6 days", "setting": "[1]; 200 ppm", "value": 100, "unit": "%"}, {"measurement": "insecticidal action compared with the compound from the state of the art", "setting": "[1]; vs compound Ia-32 of EP596298, Table B18", "value": "substantially better insecticidal action"}]}, {"molecule": "C=CCOC(=O)OC1=C(c2cc(C)ccc2C)C(=O)NC12CCN(OC)CC2", "note": "[Compound A5]", "values": [{"measurement": "Efficacy, % (reduction of aphids compared to untreated control plants)", "setting": "[2]; 0.03 mg a.i./seed", "value": 37, "unit": "%"}, {"measurement": "Efficacy, % (reduction of aphids compared to untreated control plants)", "setting": "[2]; 0.1 mg a.i./seed", "value": 97, "unit": "%"}, {"measurement": "Efficacy, % (reduction of aphids compared to untreated control plants)", "setting": "[2]; 0.3 mg a.i./seed", "value": 99, "unit": "%"}, {"measurement": "Efficacy, % (reduction of aphids compared to untreated control plants)", "setting": "[2]; 0.6 mg a.i./seed", "value": 100, "unit": "%"}]}, {"molecule": "CON1CCC2(CC1)NC(=O)C(c1cc(-c3ccc(Cl)cc3)ccc1C)=C2O", "note": "[Compound C6]", "values": [{"measurement": "Death rate (%) after 6 days", "setting": "[3]; 12.5 ppm", "value": 25, "unit": "%"}, {"measurement": "Death rate (%) after 6 days", "setting": "[3]; 50 ppm", "value": 90, "unit": "%"}, {"measurement": "insecticidal action compared with the compound from the state of the art", "setting": "[3]; vs compound 1-1-a-16 of WO1999/48869, Table B16", "value": "substantially better insecticidal action"}, {"measurement": "Inhibition of growth (%) after 5 dsys", "setting": "[4]; 50 ppm", "value": 50, "unit": "%"}, {"measurement": "Inhibition of growth (%) after 5 dsys", "setting": "[4]; 200 ppm", "value": 75, "unit": "%"}, {"measurement": "insecticidal action compared with the compound from the state of the art", "setting": "[4]; vs compound 1-1-a-16 of WO1999/48869, Table B17", "value": "substantially better insecticidal action"}]}, {"molecule": "CO[C@H]1CC[C@]2(CC1)NC(=O)C(c1cc(C)ccc1C)=C2OC(=O)C(C)(C)C", "note": "[Compound I-1-b-20, reference compound]", "values": [{"measurement": "Death rate (%) after 6 days (systemic action)", "setting": "[5]; 200 ppm", "value": 0, "unit": "%"}, {"measurement": "Death rate (%) after 8 days", "setting": "[6]; 12.5 ppm", "value": 0, "unit": "%"}, {"measurement": "Death rate (%) after 8 days", "setting": "[6]; 50 ppm", "value": 0, "unit": "%"}, {"measurement": "Death rate (%) after 8 days", "setting": "[6]; 200 ppm", "value": 50, "unit": "%"}]}, {"molecule": "CON1CCC2(CC1)NC(=O)C(c1cc(Br)c(F)cc1C)=C2O", "note": "[Compound C19, 3-(5-Bromo-4-fluoro-2-methyl-phenyl)-4-hydroxy-8-methoxy-1,8-diaza-spiro[4.5]dec-3-en-2-one]", "values": [{"measurement": "melting point", "value": "229 to 230", "unit": "°C"}]}, {"molecule": "CO[C@H]1CC[C@]2(CC1)NC(=O)C(c1c(C)cc(C)cc1C)=C2O", "note": "[Ia-32, reference compound]", "values": [{"measurement": "Death rate (%) after 6 days", "setting": "[1]; 12.5 ppm", "value": 25, "unit": "%"}, {"measurement": "Death rate (%) after 6 days", "setting": "[1]; 50 ppm", "value": 25, "unit": "%"}, {"measurement": "Death rate (%) after 6 days", "setting": "[1]; 200 ppm", "value": 25, "unit": "%"}]}, {"molecule": "CON1CCC2(CC1)NC(=O)C(c1cc(C)ccc1C)=C2OC(=O)C(C)(C)C", "note": "[Compound A9]", "values": [{"measurement": "Death rate (%) after 6 days (systemic action)", "setting": "[5]; 50 ppm", "value": 50, "unit": "%"}, {"measurement": "Death rate (%) after 6 days (systemic action)", "setting": "[5]; 200 ppm", "value": 80, "unit": "%"}, {"measurement": "insecticidal action compared with the compound from the state of the art", "setting": "[5]; vs compound I-1-b-20 of WO1998/05638, Table B19", "value": "substantially better insecticidal action"}, {"measurement": "Death rate (%) after 8 days", "setting": "[6]; 12.5 ppm", "value": 50, "unit": "%"}, {"measurement": "Death rate (%) after 8 days", "setting": "[6]; 50 ppm", "value": 80, "unit": "%"}, {"measurement": "Death rate (%) after 8 days", "setting": "[6]; 200 ppm", "value": 80, "unit": "%"}, {"measurement": "insecticidal action compared with the compound of the state of the art at low application rates", "setting": "[6]; low application rates (50 and 12.5 ppm), vs compound I-1-b-20 of WO1998/05638", "value": "far superior"}, {"measurement": "insecticidal action compared with the compound from the state of the art", "setting": "[6]; vs compound I-1-b-20 of WO1998/05638, Table B20", "value": "substantially better insecticidal action"}]}, {"molecule": "CON1CCC2(CC1)NC(=O)C(c1cc(C)ccc1C)=C2O", "note": "[Compound C1, 3-(2,5-dimethyl-phenyl)-4-hydroxy-8-methoxy-1,8-diaza-spiro[4.5]dec-3-en-2-one]", "values": [{"measurement": "Efficacy, % (reduction of aphids compared to untreated control plants)", "setting": "[2]; 0.03 mg a.i./seed", "value": 65, "unit": "%"}, {"measurement": "Efficacy, % (reduction of aphids compared to untreated control plants)", "setting": "[2]; 0.1 mg a.i./seed", "value": 96, "unit": "%"}, {"measurement": "Efficacy, % (reduction of aphids compared to untreated control plants)", "setting": "[2]; 0.3 mg a.i./seed", "value": 99, "unit": "%"}, {"measurement": "Efficacy, % (reduction of aphids compared to untreated control plants)", "setting": "[2]; 0.6 mg a.i./seed", "value": 99, "unit": "%"}]}, {"molecule": "COC1CCC2(CC1)NC(=O)C(c1cc(-c3ccc(Cl)cc3)ccc1C)=C2O", "note": "(centres unmarked) [Compound I-1-a-16]", "values": [{"measurement": "Death rate (%) after 6 days", "setting": "[3]; 12.5 ppm", "value": 0, "unit": "%"}, {"measurement": "Death rate (%) after 6 days", "setting": "[3]; 50 ppm", "value": 50, "unit": "%"}, {"measurement": "Inhibition of growth (%) after 5 dsys", "setting": "[4]; 50 ppm", "value": 0, "unit": "%"}, {"measurement": "Inhibition of growth (%) after 5 dsys", "setting": "[4]; 200 ppm", "value": 0, "unit": "%"}]}]}
